Several values for one entry are separate records, joined by “and”; a condition that tells them apart may be missing. Equal values may be shown once. Toxic doses and inconclusive results are not listed.
Test system: L1210 leukemia ip in BDF1 mice, survival T/C
Experiment: NCI In Vivo Anticancer Drug Screen. Data for tumor model L1210 Leukemia (intraperitoneal) in B6D2F1 (BDF1) mice
Details: endpoint: mean survival time, higher = longer survival
How it was run: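 Value reflects the ratio of survival in compound-treated mice to survival in vehicle-treated controls, with both groups carrying the same transplanted tumor.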

[1] = dose: 100.0 mg/kg/injection, schedule: Q01DX001 (ip), vehicle: saline
[2] = dose: 200.0 mg/kg/injection, schedule: Q01DX001 (ip), vehicle: saline
[3] = dose: 400.0 mg/kg/injection, schedule: Q01DX001 (ip), vehicle: saline
[4] = dose: 100.0 mg/kg/injection, schedule: Q01DX009 (ip), vehicle: Klucel (hydroxypropylcellulose) (HPC)
[5] = dose: 200.0 mg/kg/injection, schedule: Q01DX009 (ip), vehicle: Klucel (hydroxypropylcellulose) (HPC)
[6] = dose: 400.0 mg/kg/injection, schedule: Q01DX009 (ip), vehicle: Klucel (hydroxypropylcellulose) (HPC)
[7] = dose: 100.0 mg/kg/injection, schedule: Q04DX003 (ip), vehicle: Klucel (hydroxypropylcellulose) (HPC)
[8] = dose: 200.0 mg/kg/injection, schedule: Q04DX003 (ip), vehicle: Klucel (hydroxypropylcellulose) (HPC)
[9] = dose: 400.0 mg/kg/injection, schedule: Q04DX003 (ip), vehicle: Klucel (hydroxypropylcellulose) (HPC)
[10] = dose: 6.25 mg/kg/injection, schedule: Q01DX009 (ip), vehicle: saline with Tween-80
[11] = dose: 12.5 mg/kg/injection, schedule: Q01DX009 (ip), vehicle: saline with Tween-80
[12] = dose: 75.0 mg/kg/injection, schedule: Q01DX001 (ip), vehicle: saline
[13] = dose: 150.0 mg/kg/injection, schedule: Q01DX001 (ip), vehicle: saline
[14] = dose: 100.0 mg/kg/injection, schedule: Q04DX002 (ip), vehicle: Klucel (hydroxypropylcellulose) (HPC)
[15] = dose: 200.0 mg/kg/injection, schedule: Q04DX002 (ip), vehicle: Klucel (hydroxypropylcellulose) (HPC)
[16] = dose: 400.0 mg/kg/injection, schedule: Q04DX002 (ip), vehicle: Klucel (hydroxypropylcellulose) (HPC)

In the case of `O=c1[nH]cc(F)c(=O)[nH]1.[Tl]`, the T/C (dose: 3.12 mg/kg/injection, schedule: Q04DX003 (ip), vehicle: water) is reported as 108 % of control, the T/C (dose: 6.25 mg/kg/injection, schedule: Q04DX003 (ip), vehicle: water) is reported as 107 % of control and the T/C (dose: 12.5 mg/kg/injection, schedule: Q01DX009 (ip), vehicle: Klucel (hydroxypropylcellulose) (HPC)) is reported as 102 % of control. For the same molecule, the T/C (dose: 12.5 mg/kg/injection, schedule: Q04DX003 (ip), vehicle: water) was 118 % of control.

In the case of `CCN(CC)P(=O)(OCC(C)C(C)=O)N(CCCl)CCCl` (stereo not given), the T/C (dose: 100.0 mg/kg/injection, schedule: Q04DX003 (ip), vehicle: DMSO) is reported as 115 % of control, the T/C (dose: 200.0 mg/kg/injection, schedule: Q04DX003 (ip), vehicle: DMSO) is reported as 113 % of control and the T/C (dose: 400.0 mg/kg/injection, schedule: Q04DX003 (ip), vehicle: DMSO) is reported as 112 % of control.

For `COc1ccc(CN2CCCN(Cc3ccc(OC)cc3OC)C2c2cccnc2)c(OC)c1`, the T/C (dose: 50.0 mg/kg/injection, schedule: Q01DX001 (ip), vehicle: saline) was 94 % of control, the T/C [1] was 100 % of control and the T/C [2] was 103 % of control. For the same molecule, the T/C [3] was 100 % of control.

`C(#[C][Sn]([c]1ccccc1)([c]1ccccc1)[c]1ccccc1)c1ccccc1` was tested, and the T/C (dose: 25.0 mg/kg/injection, schedule: Q04DX002 (ip), vehicle: Klucel (hydroxypropylcellulose) (HPC)) was 97 % of control and the T/C (dose: 50.0 mg/kg/injection, schedule: Q04DX002 (ip), vehicle: Klucel (hydroxypropylcellulose) (HPC)) was 90 % of control.

With `CC(=O)Nc1ccc(NC(=O)Nc2cc([N+](=O)[O-])ccc2C)cc1` the T/C [4] was 95 % of control, the T/C [5] was 93 % of control and the T/C [6] was 96 % of control.

In the case of `CCCCCCCCCCCCCCCc1ccc([N+](=O)[O-])c(O)c1`, the T/C (dose: 100.0 mg/kg/injection, schedule: Q04DX003 (ip), vehicle: other) is reported as 98 % of control, the T/C (dose: 200.0 mg/kg/injection, schedule: Q04DX003 (ip), vehicle: other) is reported as 101 % of control and the T/C (dose: 400.0 mg/kg/injection, schedule: Q04DX003 (ip), vehicle: other) is reported as 101 % of control.

`CC(=O)CC(=O)Nc1cccc(C)c1C` was tested, and the T/C [4] was 95 % of control, the T/C [7] was 97 % of control and the T/C [5] was 88 % of control. For the same molecule, the T/C [8] was 106 % of control, the T/C [6] was 88 % of control and the T/C [9] was 105 % of control.

For `Cc1nc2c(N)nnc(N)c2nc1C`, the T/C (dose: 25.0 mg/kg/injection, schedule: Q01DX001 (ip), vehicle: Klucel (hydroxypropylcellulose) (HPC)) was 97 % of control, the T/C (dose: 50.0 mg/kg/injection, schedule: Q01DX001 (ip), vehicle: Klucel (hydroxypropylcellulose) (HPC)) was 93 % of control and the T/C (dose: 100.0 mg/kg/injection, schedule: Q01DX001 (ip), vehicle: Klucel (hydroxypropylcellulose) (HPC)) was 95 % of control. The T/C [4] was 100 % of control.

For `COc1ccc(C)nn1`, the T/C (dose: 100.0 mg/kg/injection, schedule: Q04DX002 (ip), vehicle: saline) was 106 % of control, the T/C (dose: 200.0 mg/kg/injection, schedule: Q04DX002 (ip), vehicle: saline) was 106 % of control and the T/C (dose: 400.0 mg/kg/injection, schedule: Q04DX002 (ip), vehicle: saline) was 122 % of control.

In the case of `C=CCc1ccc2c(c1)OC(CO)CO2` (stereo not given) (tested in a mixture with another compound), the T/C [1] is reported as 90 % of control, the T/C [2] is reported as 93 % of control and the T/C [3] is reported as 93 % of control.

For `CCCCCCCCCCNC(=O)C[n+]1cccc(C(=O)Nc2ccccc2)c1`, the T/C (dose: 3.12 mg/kg/injection, schedule: Q01DX009 (ip), vehicle: saline with Tween-80) was 100 % of control, the T/C [10] was 105 % of control and the T/C [11] was 88 % of control. For the same molecule, the T/C (dose: 12.5 mg/kg/injection, schedule: Q04DX003 (ip), vehicle: saline) was 103 % of control and the T/C (dose: 25.0 mg/kg/injection, schedule: Q04DX003 (ip), vehicle: saline) was 88 % of control.

In the case of `CC(=O)COc1cccc(Cl)c1Cl`, the T/C (dose: 100.0 mg/kg/injection, schedule: Q01DX009 (ip), vehicle: saline with Tween-80) is reported as 98 % of control, the T/C (dose: 200.0 mg/kg/injection, schedule: Q01DX009 (ip), vehicle: saline with Tween-80) is reported as 95 % of control and the T/C (dose: 400.0 mg/kg/injection, schedule: Q01DX009 (ip), vehicle: saline with Tween-80) is reported as 101 % of control.

`OC/C=C\C1(O)CCCCC1` was tested, and the T/C [12] was 98 % of control and the T/C [13] was 96 % of control.

In the case of `CC(CCc1ccccc1)C12CCC(CC1O)C2` (stereo not given), the T/C [14] is reported as 96 % of control, the T/C [15] is reported as 110 % of control and the T/C [16] is reported as 96 % of control.

`O=C(/C=C/c1ccc2c(c1)OCO2)/C=C/c1ccc2c(c1)OCO2` was tested, and the T/C (dose: 25.0 mg/kg/injection, schedule: Q01DX009 (ip), vehicle: saline) was 89 % of control, the T/C (dose: 50.0 mg/kg/injection, schedule: Q01DX009 (ip), vehicle: saline) was 88 % of control and the T/C (dose: 100.0 mg/kg/injection, schedule: Q01DX009 (ip), vehicle: saline) was 91 % of control. The T/C (dose: 200.0 mg/kg/injection, schedule: Q01DX009 (ip), vehicle: saline) was 88 % of control.

For `CC(CCc1cccc2ccccc12)C(=O)O` (stereo not given), the T/C [7] was 103 % of control, the T/C [8] was 100 % of control and the T/C [9] was 105 % of control.

With `c1ccc(N(c2ccccc2)C(c2ccccc2)(c2ccccc2)c2ccccc2)cc1` the T/C (dose: 25.6 mg/kg/injection, schedule: Q04DX002 (ip), vehicle: saline with Tween-80) was 93 % of control, the T/C (dose: 64.0 mg/kg/injection, schedule: Q04DX002 (ip), vehicle: saline with Tween-80) was 104 % of control and the T/C (dose: 100.0 mg/kg/injection, schedule: Q04DX003 (ip), vehicle: saline with Tween-80) was 89 % of control. The T/C (dose: 160.0 mg/kg/injection, schedule: Q04DX002 (ip), vehicle: saline with Tween-80) was 95 % of control, the T/C (dose: 200.0 mg/kg/injection, schedule: Q04DX003 (ip), vehicle: saline with Tween-80) was 92 % of control and the T/C (dose: 400.0 mg/kg/injection, schedule: Q04DX002 (ip), vehicle: saline with Tween-80) was 95 % of control. For the same molecule, the T/C (dose: 400.0 mg/kg/injection, schedule: Q04DX003 (ip), vehicle: saline with Tween-80) was 685 % of control.

With `COP(=O)(OC)/C(=N\NS(=O)(=O)c1ccc(C)cc1)c1ccccc1` the T/C [7] was 94 % of control, the T/C [8] was 101 % of control and the T/C [9] was 94 % of control.

In the case of `Cc1nc(N)sc1N=Nc1ccccc1Br`, the T/C [12] is reported as 103 % of control and the T/C [13] is reported as 108 % of control.

For `COc1ccc(NC(=O)NCCN(C)c2ccccc2)cc1`, the T/C [4] was 93 % of control and 90 % of control, the T/C [14] was 96 % of control and 101 % of control and 107 % of control and the T/C [7] was 98 % of control. The T/C [5] was 97 % of control and 104 % of control, the T/C [15] was 98 % of control and 100 % of control and 104 % of control and the T/C [8] was 101 % of control. For the same molecule, the T/C [6] was 100 % of control and 101 % of control, the T/C [16] was 96 % of control and 101 % of control and 103 % of control and the T/C [9] was 98 % of control.

With `CCOC(Cl)CCl` (stereo not given) the T/C [10] was 106 % of control, the T/C (dose: 12.5 mg/kg/injection, schedule: Q01DX001 (ip), vehicle: saline with Tween-80) was 97 % of control and the T/C [11] was 100 % of control. For the same molecule, the T/C (dose: 25.0 mg/kg/injection, schedule: Q01DX001 (ip), vehicle: saline with Tween-80) was 97 % of control, the T/C (dose: 25.0 mg/kg/injection, schedule: Q01DX009 (ip), vehicle: saline with Tween-80) was 108 % of control and the T/C (dose: 50.0 mg/kg/injection, schedule: Q01DX001 (ip), vehicle: saline with Tween-80) was 93 % of control and 105 % of control. The T/C (dose: 50.0 mg/kg/injection, schedule: Q01DX009 (ip), vehicle: saline with Tween-80) was 101 % of control.

For `O=C(/N=N/C(=O)Oc1ccccc1)Oc1ccccc1`, the T/C [1] was 98 % of control, the T/C [2] was 101 % of control and the T/C [3] was 98 % of control.

For `CC(=O)OCC(OC(C)=O)C1(O)CCC2C3CCC4=CC(=O)CCC4(C)C3CCC21C` (stereo not given), the T/C (dose: 50.0 mg/kg/injection, schedule: Q01DX009 (ip), vehicle: Klucel (hydroxypropylcellulose) (HPC)) was 100 % of control, the T/C [4] was 94 % of control and 107 % of control and the T/C [5] was 93 % of control.

With `CC1(C)CCC2(C)CCCCC2C1O` (stereo not given) the T/C (dose: 50.0 mg/kg/injection, schedule: Q04DX002 (ip), vehicle: saline with Tween-80) was 92 % of control, the T/C (dose: 100.0 mg/kg/injection, schedule: Q04DX002 (ip), vehicle: saline with Tween-80) was 96 % of control and the T/C (dose: 200.0 mg/kg/injection, schedule: Q04DX002 (ip), vehicle: saline with Tween-80) was 101 % of control.

In the case of `O=[N+]([O-])c1ccc(/C(=C/c2ccccc2)[n+]2ccccc2)cc1`, the T/C (dose: 10.0 mg/kg/injection, schedule: Q01DX001 (ip), vehicle: saline) is reported as 106 % of control, the T/C (dose: 20.0 mg/kg/injection, schedule: Q01DX001 (ip), vehicle: saline) is reported as 100 % of control and the T/C (dose: 40.0 mg/kg/injection, schedule: Q01DX001 (ip), vehicle: saline) is reported as 100 % of control.
